Results published in US11103504B2, “Combination of a DNA condensation-inducing compound and an Eis inhibitor for antibiotic treatment” (priority 2018, dated 2021).

Key:
M. smegmatis mc^2 155 = assay: DNA volume quantification (deconvolved wide-field FM); format: cell-based, Mycobacterium smegmatis; conditions: incubated with FA for 1 hour, FIG. 5B
Method: Z-stack Wide-field FM images of fixed M. smegmatis mc^2 155 stained for DNA and lipids were collected at 200 nm increments. Deconvolution and DNA volume quantification was subsequently performed using standard deconvolution parameters of Huygens Professional software (Scientific Volume Imaging, SVI, Hilversum, The Netherlands). Average volume was determined for 60 bacteria per condition per experiment and standard deviation was calculated with 2-tailed T-test.

M. tuberculosis mc^26030 [1] = assay: DNA-condensation incidence by fluorescence microscopy; format: cell-based, Mycobacterium tuberculosis; conditions: for fraction of bacilli with condensed DNA: 20 times the MIC50, 1 hour, vs control, P<0.05, FIG. 2D; for induction of condensation of the DNA: summary statement
M. tuberculosis mc^26030 [2] = format: cell-based, Mycobacterium tuberculosis; conditions: 1 hour after FA treatment vs untreated
M. smegmatis mc^2155 [3] = assay: Monitoring mycobacterial survival (OD600, CFU); format: cell-based, Mycobacterium smegmatis; conditions: combination of fusidic acid and Eis inhibition
Method: M. smegmatis mc^2155 overnight cultures were treated with FA, EIS inhibitor 1a*, or a combination hereof. Cultures were treated with antibiotic for 1 hour before second antibiotic was administered. Before treatment, and after 2 hours and at day 1,2,3 and 6, the OD600 was determined with a spectrophotometer, and a sample of the culture was fixed, or plated in a dilution series on 7H10 plates in triplo. At day 2, the antibiotic treatment was repeated. At least 3 independent experiments were quantified per condition.
In all experiments, factor correction was applied to remove systematic differences between the different measuring sessions needed to obtain the results. In case of 2 experimental conditions, Student's t-test was applied. […] To further dissect these effects, a 1-way ANOVA per time point was performed.

[4] = system: M. smegmatis mc^23449 SMC triple deletion mutant; format: cell-based, Mycobacterium smegmatis; conditions: FA 1 hour, FIGS. 6A-B
M. smegmatis mc^2155 [5] = assay: Transmission electron microscopy of ultrathin sections; format: cell-based, Mycobacterium smegmatis; conditions: FA treated, early log phase
M. smegmatis mc^2155 [6] = assay: DNA localization / DNA-condensation by fluorescence microscopy; format: cell-based, Mycobacterium smegmatis
M. smegmatis = assay: Live cell imaging with bacterial viability staining; format: cell-based, Mycobacterium smegmatis; conditions: live-cell imaging started 5 minutes after FA addition

For CC(=O)O[C@H]1C[C@@]2(C)[C@@H](C[C@@H](O)[C@H]3[C@@]4(C)CC[C@@H](O)[C@@H](C)[C@@H]4CC[C@@]32C)/C1=C(\CCC=C(C)C)C(=O)O [fusidic acid], the “average 3D volume of the DNA clusters” value (M. smegmatis mc^2 155) was 0.24 μm^3, the “incidence of DNA-condensation after wash-out (reversibility)” value (M. tuberculosis mc^26030 [1]) was “increased until 6 hours after treatment, followed by a gradual reduction” and the “fraction of bacilli with condensed DNA” value (M. tuberculosis mc^26030 [1]) was “increased the percentage bacteria with condensed DNA significantly”. The “DNA localization after FA treatment” value (M. tuberculosis mc^26030 [1]; same experimental conditions as M. smegmatis, FIG. 2B) was “condensed their DNA into a single nucleoid”, the “induction of condensation of the DNA” value (M. tuberculosis mc^26030 [1]) was “can induce condensation of the DNA” and the “percentage of nonviable bacteria with condensed DNA” value (M. tuberculosis mc^26030 [2]) was “did not differ”. The “percentage of viable bacteria with condensed DNA” value (M. tuberculosis mc^26030 [2]) was “increased significantly”, the “potentiation of efficacy by the combination” value (M. smegmatis mc^2155 [3]) was 10 fold and the “DNA condensation after FA treatment in SMC triple knock out” value [4] was “clearly visible”. For the same molecule, the “ultrastructural DNA localization (TEM)” value (M. smegmatis mc^2155 [5]) was “bundles of DNA were localized in a single compact nucleoid”, the “DNA distribution after 2 days” value (M. smegmatis mc^2155 [6]; 2 days of incubation, first agent 1 hour before second) was “still displayed condensed DNA” and the “bacteria that condensed their nucleoid” value (M. smegmatis mc^2155 [6]; after 1 hour of antibiotic stress, FIG. 2C) was “more than 80%”. The “bacteria that condensed their DNA into a single nucleoid after FA treatment” value (M. smegmatis mc^2155 [6]; early log phase, FIG. 2A) was “more than 90%” and the “time until first bacteria converted from viable to inviable” value (M. smegmatis) was 16 min.
NNC(=O)c1ccncc1 [isoniazid] was tested, and the “induction of condensation of the DNA” value (M. tuberculosis mc^26030 [1]) was “can induce condensation of the DNA”.
CC(=O)NC[C@H]1CN(c2ccc(N3CCOCC3)c(F)c2)C(=O)O1 [linezolid] was tested, and the “induction of condensation of the DNA” value (M. tuberculosis mc^26030 [1]) was “can induce condensation of the DNA”.
In the case of CCn1cc(C(=O)O)c(=O)c2ccc(C)nc21 [nalidixic acid], the “fraction of bacilli with condensed DNA” value (M. tuberculosis mc^26030 [1]) is reported as “increased the percentage bacteria with condensed DNA significantly” and the “induction of condensation of the DNA” value (M. tuberculosis mc^26030 [1]) is reported as “can induce condensation of the DNA”.
With [H]/N=C(/N)N[C@H]1[C@H](O)[C@@H](O)[C@H](O[C@@H]2O[C@@H](C)[C@](O)(C=O)[C@H]2O[C@@H]2O[C@@H](CO)[C@H](O)[C@@H](O)[C@@H]2NC)[C@@H](N/C(N)=N\[H])[C@@H]1O [streptomycin] the “fraction of bacilli with condensed DNA” value (M. tuberculosis mc^26030 [1]) was “increased the percentage bacteria with condensed DNA significantly” and the “induction of condensation of the DNA” value (M. tuberculosis mc^26030 [1]) was “can induce condensation of the DNA”.
